Row | Compound | melting point [°C]
1 | Cc1ccc2c(NC(=NC#N)NC(NC(=O)Cc3ccc(Cl)cc3)C(C)(C)C)cccc2n1 (stereo not given) | 198 to 199
2 | NC(=O)c1ccccc1N1CCc2cc(Cl)ccc21 | 137 to 138
3 | Cc1oc(-c2ccc(C(F)(F)F)cc2)nc1-c1cccc(-c2ccc(OCC(=O)O)cc2)c1 | 178 to 179
4 | CCCCNC(=O)c1ccc(Cl)c(-n2nc(CCCC)n(Cc3ccc(-c4ccccc4S(=O)(=O)NC(=O)c4ccccc4Cl)cc3)c2=O)c1 | > 155
5 | CC(C)CCC(=O)N1C(=O)O[C@H](c2ccccc2)[C@@H]1C | 76 to 77
6 | C=C(OCC)c1c(C)nc(C)nc1NCc1ccc(Br)cc1 | 111 to 113
7 | CNC(=NS(=O)(=O)c1ccc(C)cc1)NCCSCc1[nH]cnc1C | 138
8 | CCCCOc1ccc(S(=O)(=O)N2CCC(O)C2)cc1 (stereo not given) | 83 to 84
9 | COc1ccccc1N1CCN(CCCCOc2ccc(-c3cn4cccnc4n3)cc2)CC1 | 151 to 153
10 | O=C(Nc1cccc([N+](=O)[O-])c1)c1ccccc1SSc1ccccc1C(=O)Nc1cccc([N+](=O)[O-])c1 | > 270
11 | Cc1ccc2c(c1)C=Cc1cc(C)ccc1C2c1cn(-c2ncc(C(=O)O)c(NCC(=O)O)n2)c(=O)[nH]c1=O | 271
12 | CC(=O)c1cccc(NC(=S)N(C)N)c1 | 125 to 127
13 | O=C1CCCN1[C@@H]1c2cc(Cl)ccc2OCC[C@H]1O (relative stereo) | 186 to 188
14 | COc1ccc(NC(=O)Nc2ccccc2)cc1NC(=S)Nc1cc(Cl)cc(Cl)c1 | 218 to 219
15 | COC(=O)c1cc2cc(-c3ccc(OC)cc3)ccc2o1 | 160 to 162
16 | COC(=O)c1cc(C(=O)c2c(C)c(OC)c3c(OCC(=O)O)cccn23)ccc1N | 164
17 | N#Cc1cccc(-c2ccc3c(Cl)cnc(NC(=N)N)c3c2)c1 | > 300
18 | Cn1ncc2nn(-c3cc(C(F)(F)F)ccc3F)c(=O)cc21 | 190 to 195
19 | Cc1cccc2sc(-n3nc4c(c3O)-c3ccccc3CC4)nc12 | 224 to 225
20 | O=c1c2ccc(Cl)cc2oc2c(OCc3ccccc3)cccc12 | 154
21 | CCOC(=O)C1=C(C)NC(C)=C(C(=O)OC(C)C)C1c1cccc2ccccc12 (stereo not given) | 167
22 | CC1(C)c2ccc(CCN3CCN(c4nsc5ccccc45)CC3)cc2C(C)(C)C1O (stereo not given) | 47 to 49
23 | Cc1ccc(C(=O)NCC(O)CO)cc1-n1c(C)cc(OCc2ccccc2CNC(=O)Nc2cc(C(C)(C)C)nn2-c2ccc(O)c(Cl)c2)c(Cl)c1=O (stereo not given) | 173 to 175
24 | COc1cc2c(cc1OC)[C@@H]1CCCC[C@@H]1N=C2c1ccc(N(S(=O)(=O)c2ccc(C)cc2)S(=O)(=O)c2ccc(C)cc2)cc1 (racemic) | 120 to 130

Row | Compound | melting point [°C]
25 | C=C1c2cc(F)ccc2OC12CCN(C(C)=O)CC2 | 114 to 116
26 | O=C(O)Cc1cnn(-c2ccc(Cl)cc2)c1-c1ccc(Cl)cc1 | 195 to 196
27 | CN1CCN(CC(=O)NN)CC1 | 87 to 89
28 | Oc1noc2ccc(Oc3ccc(C(F)(F)F)cc3Cl)cc12 | 167 to 170
29 | CC(C)(C)C=C/C=C/C(C)(C)C | 78 to 79
30 | CN(C)CC1CCC2(CC1)Nc1cc(Cl)c(S(N)(=O)=O)cc1S(=O)(=O)N2 (stereo not given) | 273
31 | CC(=O)Nc1c(C(=O)c2cccc(O)c2)[nH]c2cc(Cl)ccc12 | 130 to 145
32 | CCOC(=O)c1cnc(Nc2ccc(N(C)C)cc2)[nH]c1=O | 246 to 248
33 | CCCCCCCCCCn1c(C)cc(C)c(C#N)c1=O | 82 to 83
34 | CC(=O)COc1ccc2c(C)cc(=O)oc2c1 | 146 to 148
35 | CC(=O)N1CCN=C1Nc1cc(-c2ccccc2)nn1C | 154 to 155
36 | COc1cc(CO)cc2c1OCO2 | 66 to 67
37 | Nc1nccc(-c2c[nH]c3nccc(-c4ccccc4)c23)n1 | > 210
38 | N#Cc1ccc(-c2ccc(-c3cccs3)s2)s1 | 122 to 125
39 | COC(=O)c1c(OC)cccc1C(=O)O | 140 to 141
40 | O=C(NC[C@@H]1CN2C(=O)C[C@H]2O1)c1cc(F)c(F)cc1F (racemic) | 76.5 to 78.1
41 | CCON=C(C)C(C)=NOc1ncccc1C(=NOC)C(=O)NC | 110
42 | CCOC(=O)C1=C(C)NC(C)=C(C(=O)OCC)C1c1ccccc1C=CC(=O)O | 175 to 178
43 | O=c1[nH]c(=S)[nH]cc1Oc1cccnc1 | 227 to 230
44 | CCc1cc2c([nH]c1=O)C(=O)C=CC2=O | 168
45 | NS(=O)C12CC3CC(CC(C3)C1)C2 (stereo not given) | 139 to 141
46 | Fc1ccc(Nc2ncnc3ccc(-n4cncn4)cc23)c(F)c1 | > 250
47 | C[C@H](N=C(C(=O)O)C(C)(C)C)c1ccccc1 | 135 to 136
48 | O=C(OC1c2nccnc2C(=O)N1c1ccc2ccc(Cl)cc2n1)N1CCNCC1 (stereo not given) | 242

Row | Compound | melting point [°C]
49 | Nc1cc(Cl)c(S(N)(=O)=O)cc1N | 216
50 | O=c1ncc(Cl)cn1COCc1cccc(C(F)(F)F)c1 | 95
51 | C[C@H](NC(=O)CC1CCC(=O)CC1)c1ccccc1 | 110 to 151
52 | CCCCn1c2ccc(C#N)cc2c2cc(C#N)ccc21 | 215 to 217
53 | Cc1cc(C(=O)NCCO)ncc1C(c1cc(F)ccc1F)S(=O)(=O)c1ccc(F)cc1 (stereo not given) | 153 to 154
54 | O[C@@H](CNCCOc1ccc2oc(-c3ccon3)cc2c1)COc1ccccc1 | 107 to 110
55 | Cn1c(Oc2cccc(N=C=S)c2)nc2ccccc21 | 121 to 124
56 | CCOC(Cc1ccc(OCCN2C(=O)COc3ccccc32)cc1)C(=O)O (stereo not given) | 90 to 93
57 | O=S(=O)(c1c(-c2cc(Cl)cc(Cl)c2)[nH]c2c(Cl)cc(Cl)cc12)C(F)(F)F | 300 to 302
58 | Cc1ccc(S(N)(=O)=O)cc1-c1nc(C(F)(F)F)oc1-c1ccccc1 | 150 to 151
59 | CN1C(=O)CCC2(C)c3ccc(S(=O)(=O)c4ccccc4)cc3CCC12 (single isomer, unassigned; (+)) | 165 to 167
60 | CC(C)(c1ccc2ncccc2c1)n1nnc2ccc(-c3cn[nH]c3)nc21 | 218 to 220
61 | Clc1ccc2c(c1)[nH]c1cc(Cl)ccc12 | 188 to 189
62 | CCCc1c(C(=O)C(C)C)c2ccc(C(N)=O)cc2n1Cc1ccc(Br)cc1Cl | 199 to 201
63 | Cc1cc(C)cc(COCC(NC(=O)c2ccccc2)C(c2ccccc2)c2ccccc2)c1 (stereo not given) | 128 to 129
64 | CC(C)CNS(=O)(=O)c1cccc(NC(=O)c2cnn3c(C(F)(F)F)cc(-c4ccc(C(F)(F)F)cc4)nc23)c1 | 205
65 | CCOC(=O)C1=Cc2cc(C=NO)ccc2OC1C(F)(F)F (stereo not given) | 113 to 116
66 | CSCCN1CSC(=Cc2cc(C(C)(C)C)c(O)c(C(C)(C)C)c2)C1=O | 166 to 168
67 | CCCCCCCCCCCCCC(=O)c1c(O)c(C)c(C)c(O)c1CCC | 70
68 | COc1ccc(OCc2ccccn2)cc1/C=C/c1cc(/C=C/c2ccc3cc[nH]c3c2)n[nH]1 | 111 to 120
69 | Cc1nc2sccn2c(=O)c1CCN1CCC(=C2c3ccccc3CCn3ccnc32)CC1 | 182
70 | CCOC(=O)c1ccc(C(=O)NNC(=O)c2ccc(C(=O)OCC)cc2)cc1 | 191 to 195

— a melting point compilation (Tetko et al.; mined from patent text by program, amines drawn as free bases though some values may be those of a salt)
